Assay in all cases: scanMAX kinase panel
Holding throughout (assay type): binding
Holding throughout (settings): read-out: % Control; for remaining binding at 1 µM: 1000 nM

The target in assay [1] is T1, PIP5K1C (Homo sapiens, UniProt O60331).
T1 construct: purchased DiscoverX scanMAX
From the text: (§1) Supplemental Table S2. scanMAXSM Kinome Assay Results. Complete tabulated data of all 468 kinases from the panel, including
(§2) 403 wild-type and 65 mutant isoforms. […] Cmpd 11 and Cmpd 24

Assay [2] concerns the target T2, NEK1 (Homo sapiens, UniProt Q96PY6).
T2 construct: purchased DiscoverX scanMAX
T2 sequence (Q96PY6 1-1258): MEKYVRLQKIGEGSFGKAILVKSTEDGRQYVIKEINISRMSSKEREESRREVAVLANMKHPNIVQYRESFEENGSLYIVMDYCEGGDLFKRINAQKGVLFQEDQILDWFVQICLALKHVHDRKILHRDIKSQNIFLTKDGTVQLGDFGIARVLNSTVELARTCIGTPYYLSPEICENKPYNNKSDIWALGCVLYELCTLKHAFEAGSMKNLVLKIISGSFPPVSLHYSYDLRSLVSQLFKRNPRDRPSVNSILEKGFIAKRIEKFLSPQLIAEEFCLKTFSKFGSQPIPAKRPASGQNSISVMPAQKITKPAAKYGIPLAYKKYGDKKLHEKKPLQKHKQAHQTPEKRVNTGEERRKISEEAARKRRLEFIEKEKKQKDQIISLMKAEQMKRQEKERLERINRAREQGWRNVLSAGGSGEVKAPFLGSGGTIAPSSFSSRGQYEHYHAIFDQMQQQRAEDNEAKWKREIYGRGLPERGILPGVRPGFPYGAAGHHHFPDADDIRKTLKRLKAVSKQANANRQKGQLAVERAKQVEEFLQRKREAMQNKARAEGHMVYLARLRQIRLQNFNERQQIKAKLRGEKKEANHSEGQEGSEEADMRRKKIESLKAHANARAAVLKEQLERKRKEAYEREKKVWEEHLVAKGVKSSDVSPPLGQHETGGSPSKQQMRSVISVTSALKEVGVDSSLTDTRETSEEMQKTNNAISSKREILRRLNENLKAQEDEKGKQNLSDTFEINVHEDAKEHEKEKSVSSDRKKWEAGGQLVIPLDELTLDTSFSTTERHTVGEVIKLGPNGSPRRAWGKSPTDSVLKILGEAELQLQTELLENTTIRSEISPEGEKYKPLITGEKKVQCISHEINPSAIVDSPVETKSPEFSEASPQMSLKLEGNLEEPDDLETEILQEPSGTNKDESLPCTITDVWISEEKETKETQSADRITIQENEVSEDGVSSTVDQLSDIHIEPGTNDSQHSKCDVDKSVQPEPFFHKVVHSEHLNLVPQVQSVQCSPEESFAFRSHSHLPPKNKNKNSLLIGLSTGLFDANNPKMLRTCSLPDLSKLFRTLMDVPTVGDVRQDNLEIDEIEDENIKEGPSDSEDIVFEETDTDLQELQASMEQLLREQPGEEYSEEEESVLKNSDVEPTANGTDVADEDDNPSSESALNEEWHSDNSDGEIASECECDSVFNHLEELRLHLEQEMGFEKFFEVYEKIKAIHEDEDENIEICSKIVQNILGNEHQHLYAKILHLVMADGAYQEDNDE
Text: as §1, §2

The target of assay [3] is T3, BLK (Homo sapiens, UniProt P51451).
T3 construct: purchased DiscoverX scanMAX
Text: as §1, §2

Assay [4] concerns the target T4, RIPK5 (Homo sapiens, UniProt Q6XUX3).
T4 construct: purchased DiscoverX (scanMAX panel)
T4 sequence (Q6XUX3 1-929): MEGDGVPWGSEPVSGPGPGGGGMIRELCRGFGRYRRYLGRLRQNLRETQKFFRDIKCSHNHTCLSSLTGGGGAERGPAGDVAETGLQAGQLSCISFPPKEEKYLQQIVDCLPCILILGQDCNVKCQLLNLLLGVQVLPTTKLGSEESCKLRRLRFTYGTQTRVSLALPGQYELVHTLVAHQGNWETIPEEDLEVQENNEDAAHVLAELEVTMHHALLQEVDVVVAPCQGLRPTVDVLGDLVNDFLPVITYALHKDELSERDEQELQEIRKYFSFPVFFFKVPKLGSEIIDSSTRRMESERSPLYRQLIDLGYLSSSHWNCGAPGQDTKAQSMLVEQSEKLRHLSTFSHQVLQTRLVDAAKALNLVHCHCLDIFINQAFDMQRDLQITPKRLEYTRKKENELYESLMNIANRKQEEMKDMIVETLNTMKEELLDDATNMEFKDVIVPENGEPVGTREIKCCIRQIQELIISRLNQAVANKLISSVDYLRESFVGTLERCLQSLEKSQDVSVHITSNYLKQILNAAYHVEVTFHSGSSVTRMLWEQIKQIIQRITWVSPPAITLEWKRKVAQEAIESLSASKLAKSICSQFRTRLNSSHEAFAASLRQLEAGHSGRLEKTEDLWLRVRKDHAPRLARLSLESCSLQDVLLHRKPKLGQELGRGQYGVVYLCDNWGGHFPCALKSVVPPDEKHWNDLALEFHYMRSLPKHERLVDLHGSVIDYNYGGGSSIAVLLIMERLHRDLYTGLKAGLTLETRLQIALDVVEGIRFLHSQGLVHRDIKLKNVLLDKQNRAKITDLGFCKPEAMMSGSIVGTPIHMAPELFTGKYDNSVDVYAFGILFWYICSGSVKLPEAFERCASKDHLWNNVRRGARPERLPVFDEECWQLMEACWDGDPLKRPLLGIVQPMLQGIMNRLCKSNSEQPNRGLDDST
Text: as §1, §2

Assay [5] has as its target T5, MAP3K3 (Homo sapiens, UniProt Q99759).
T5 construct: purchased DiscoverX scanMAX
T5 sequence (Q99759 1-626): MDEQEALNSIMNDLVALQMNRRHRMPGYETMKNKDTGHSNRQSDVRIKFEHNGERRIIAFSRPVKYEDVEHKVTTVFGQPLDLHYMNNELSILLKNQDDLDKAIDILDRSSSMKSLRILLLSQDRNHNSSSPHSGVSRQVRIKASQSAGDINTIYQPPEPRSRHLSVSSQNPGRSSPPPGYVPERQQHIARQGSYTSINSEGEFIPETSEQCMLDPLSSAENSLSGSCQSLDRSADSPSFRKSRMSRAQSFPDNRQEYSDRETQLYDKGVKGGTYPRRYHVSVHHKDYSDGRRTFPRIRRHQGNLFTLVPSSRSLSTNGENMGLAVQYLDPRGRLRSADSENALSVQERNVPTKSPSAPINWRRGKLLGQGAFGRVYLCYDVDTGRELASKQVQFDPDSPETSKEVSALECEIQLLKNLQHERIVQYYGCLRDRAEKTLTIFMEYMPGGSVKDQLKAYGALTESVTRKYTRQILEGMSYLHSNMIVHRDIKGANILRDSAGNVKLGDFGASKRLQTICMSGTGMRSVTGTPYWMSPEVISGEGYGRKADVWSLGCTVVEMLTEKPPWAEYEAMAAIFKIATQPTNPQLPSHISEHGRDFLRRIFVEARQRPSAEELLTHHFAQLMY
Text: as §1, §2

T1 sequence (O60331 whole entry): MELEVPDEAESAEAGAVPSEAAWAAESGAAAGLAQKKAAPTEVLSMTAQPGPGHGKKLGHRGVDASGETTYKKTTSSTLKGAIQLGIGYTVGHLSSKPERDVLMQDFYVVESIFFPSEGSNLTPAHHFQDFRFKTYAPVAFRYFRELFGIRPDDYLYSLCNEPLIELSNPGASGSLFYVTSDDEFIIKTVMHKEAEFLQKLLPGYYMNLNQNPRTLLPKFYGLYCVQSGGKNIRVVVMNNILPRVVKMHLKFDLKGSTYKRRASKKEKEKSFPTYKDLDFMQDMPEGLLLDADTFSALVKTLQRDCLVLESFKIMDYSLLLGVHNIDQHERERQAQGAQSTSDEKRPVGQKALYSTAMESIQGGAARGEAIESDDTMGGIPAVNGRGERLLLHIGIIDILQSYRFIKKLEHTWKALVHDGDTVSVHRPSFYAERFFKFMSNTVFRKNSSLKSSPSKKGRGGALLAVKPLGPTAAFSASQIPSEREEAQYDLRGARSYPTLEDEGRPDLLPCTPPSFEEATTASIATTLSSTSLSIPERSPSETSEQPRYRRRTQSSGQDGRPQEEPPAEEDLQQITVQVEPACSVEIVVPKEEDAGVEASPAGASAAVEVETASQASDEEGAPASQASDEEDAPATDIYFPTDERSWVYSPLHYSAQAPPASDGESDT
T3 sequence (P51451 whole entry): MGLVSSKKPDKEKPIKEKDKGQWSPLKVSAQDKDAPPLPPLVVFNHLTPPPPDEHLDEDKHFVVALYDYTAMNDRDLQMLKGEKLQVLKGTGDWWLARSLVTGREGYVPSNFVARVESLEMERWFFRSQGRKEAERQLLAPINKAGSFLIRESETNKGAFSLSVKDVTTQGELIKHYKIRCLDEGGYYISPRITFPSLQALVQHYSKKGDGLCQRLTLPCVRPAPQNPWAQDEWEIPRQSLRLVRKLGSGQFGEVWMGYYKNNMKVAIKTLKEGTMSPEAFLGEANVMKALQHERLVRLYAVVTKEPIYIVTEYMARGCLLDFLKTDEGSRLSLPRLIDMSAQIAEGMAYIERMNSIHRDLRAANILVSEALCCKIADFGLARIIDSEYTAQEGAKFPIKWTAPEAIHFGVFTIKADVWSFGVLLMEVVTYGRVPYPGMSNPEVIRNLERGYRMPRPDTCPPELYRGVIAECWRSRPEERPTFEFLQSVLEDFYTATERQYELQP

With `Cc1cc(NC(=O)[C@H](O)c2cccc(F)c2)ccc1-c1cn(C)c2ncnc(N)c12` [Compound 11, (R)-N-(4-(4-amino-7-methyl-7H-pyrrolo[2,3-d]pyrimidin-5-yl)-3-methylphenyl)-2-(3-fluorophenyl)-2-hydroxy acetamide], the remaining binding at 1 µM came to 99% in assay [1]; 2.9% in assay [2]; 19% in assay [3]; 3.4% in assay [4]; 32% in assay [5].
For `Cc1nc(N)c2c(-c3ccc(NC(=O)[C@H](O)c4cccc(F)c4)cc3C)cn(C)c2n1` [Compound 24], the remaining binding at 1 µM turned out to be 34% in assay [1]; 100% in assay [2]; 100% in assay [3]; 100% in assay [4]; 100% in assay [5].
Turning to `Cc1nc(N)c2c(-c3ccc(NC(=O)[C@H](O)c4cccc(C(F)(F)F)c4)cc3C)cn(C)c2n1` [Compound 26], the remaining binding at 0.1 µM in assay [1] (100 nM) was 100%; in assay [2] (100 nM), 88%; in assay [3] (100 nM), 100%; in assay [4] (100 nM) it was 100%; in assay [5] (100 nM) it was 100%. For the same compound, the remaining binding at 1 µM in assay [1] was 91%; in assay [2], 100%; in assay [3], 91%; in assay [4], 100%; in assay [5] it was 92%.
